According to patent US8604194B2, “Salts of O-desmethyl-venlafaxine” (Lek Pharmaceuticals D.D., priority 2008, dated 2013):

Assay: Solubility of desvenlafaxine salts in water at 23° C.
Conditions: for Solubility of desvenlafaxine salts in water: 23° C.

Structure (SMILES) | solubility in water (result in words) (refers to Table 1) | Solubility of desvenlafaxine salts in water [mg/mL]
CN(C)CC(c1ccc(O)cc1)C1(O)CCCCC1.O=C[C@H](O)[C@@H](O)[C@H](O)[C@H](O)C(=O)O (stereo not drawn) [O-desmethyl-venlafaxine glucuronate] | good solubility in water | –
CN(C)CC(c1ccc(O)cc1)C1(O)CCCCC1.O=C(O)C1OC(O)C(O)C(O)C1O [glucuronate amorphous, desvenlafaxine D-glucuronate] | – | 338
CN(C)CC(c1ccc(O)cc1)C1(O)CCCCC1.O.O=C(O)C1OC(O)C(O)C(O)C1O [glucuronate crystalline, desvenlafaxine D-glucuronate monohydrate] | – | 299
